The values below come from US11384055B2 (BIOMARIN PHARMACEUTICAL INC., priority 2017, dated 2022).

One may read the IC50 as the concentration that inhibits the measured activity by half.

Molecules are shown by their SMILES. Some results are limits rather than exact numbers.

The first assay deals with T1, Human GO (Homo sapiens, UniProt Q9UJM8).
T1 construct: purchased Novus Biologicals NBP1-72412
T1 sequence (Q9UJM8 1-370): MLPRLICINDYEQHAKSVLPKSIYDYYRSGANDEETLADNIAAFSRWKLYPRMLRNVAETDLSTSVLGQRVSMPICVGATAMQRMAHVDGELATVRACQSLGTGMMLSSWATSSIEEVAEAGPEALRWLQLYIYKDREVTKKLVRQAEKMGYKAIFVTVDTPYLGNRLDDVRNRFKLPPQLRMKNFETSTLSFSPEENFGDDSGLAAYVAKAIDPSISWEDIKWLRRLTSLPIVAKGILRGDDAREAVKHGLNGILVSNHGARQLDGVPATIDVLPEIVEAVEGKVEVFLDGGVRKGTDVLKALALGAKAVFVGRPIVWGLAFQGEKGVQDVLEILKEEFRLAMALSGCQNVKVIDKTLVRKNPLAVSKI
Put plainly: GO enzymatic assay (coupled fluorescence/HRP assay, glycolate substrate).
Details: not given
Type of assay: biochemical. How it is done:
Assay 1: GO Enzymatic Assay
GO was incubated with its substrate, glycolate, in 50 mM potassium phosphate buffer, pH 7. […] The enzyme was optimized and the kinetics was determined.
Compound inhibition was determined by adding various concentrations of inhibitors in the GO enzyme assay. The IC50 value for each measured compound was generated from sigmoidal dose-response (variable slope) curves with GraphPad Prism software (GraphPad Software, Inc., San Diego, Calif.) using the percent inhibition of GO activity relative to DMSO control.
With `O=C(O)c1[nH]nnc1Oc1ccc(-c2ccc(Cl)cc2)cc1` [Compound 86, 4-((4′-chloro-[1,1′-biphenyl]-4-yl)oxy)-1H-1,2,3-triazole-5-carboxylic acid], the IC50 was under 100 nM. Compound `O=C(O)c1[nH]nnc1Oc1ccc(Cl)c(Cl)c1` [Compound 88, 4-(3,4-dichlorophenoxy)-1H-1,2,3-triazole-5-carboxylic acid] came in with an IC50 of under 100 nM. As to `O=C(O)c1[nH]nnc1Oc1ccc(F)c(F)c1` [Compound 94, 4-(3,4-difluorophenoxy)-1H-1,2,3-triazole-5-carboxylic acid], the IC50 was under 100 nM.

Take `CC(C)(C)C(=O)OCn1nnc(Oc2ccc(Cl)c(Cl)c2)c1C(=O)O` [Compound 102, 4-(3,4-dichlorophenoxy)-1-((pivaloyloxy)methyl)-1H-1,2,3-triazole-5-carboxylic acid]: the IC50 was 100 to 1000 nM.

The compound `CC(C)C(=O)OCn1nnc(Oc2ccc(Cl)c(Cl)c2)c1C(=O)O` [Compound 103, 4-(3,4-dichlorophenoxy)-1-((isobutyryloxy)methyl)-1H-1,2,3-triazole-5-carboxylic acid] came in with an IC50 of 100 to 1000 nM. Same read-out and setting: then `CC(=O)OCn1nnc(Oc2ccc(Cl)c(Cl)c2)c1C(=O)O` [Compound 104, 1-(acetoxymethyl)-4-(3,4-dichlorophenoxy)-1H-1,2,3-triazole-5-carboxylic acid], with 100 to 1000 nM.

The same assay, now with this note: Table 1; read-out: Range (range of IC50 values calculated from the enzymatic assays).
Take `COC(=O)c1[nH]nnc1Nc1ccc(-c2ccc(OC(F)(F)F)cc2)cc1` [Compound 65, methyl 4-((4′-(trifluoromethoxy)-[1,1′-biphenyl]-4-yl)amino)-1H-1,2,3-triazole-5-carboxylate]: the IC50 is over 10000 nM.

With `O=C(O)CN(c1ccc(-c2ccc(Cl)cc2)cc1)c1nn[nH]c1C(=O)O` [Compound 66, 4-((carboxymethyl)(4′-chloro-[1,1′-biphenyl]-4-yl)amino)-1H-1,2,3-triazole-5-carboxylic acid 2,2,2-trifluoroacetate], the IC50 was 1000 to 10000 nM.

With `O=C(O)c1[nH]nnc1NCc1cccc(-c2ccc(Cl)c(Cl)c2)c1` [Compound 67, 4-(((3′,4′-dichloro-[1,1′-biphenyl]-3-yl)methyl)amino)-1H-1,2,3-triazole-5-carboxylic acid], the IC50 is 100 to 1000 nM. Turning to `O=C(O)c1[nH]nnc1NCc1ccc(-c2ccc(Cl)c(Cl)c2)cc1` [Compound 68, 4-(((3′,4′-dichloro-[1,1′-biphenyl]-4-yl)methyl)amino)-1H-1,2,3-triazole-5-carboxylic acid], the IC50 is under 100 nM. Regarding `O=C(O)c1[nH]nnc1Nc1ccc(Cl)c(Cl)c1` [Compound 69, 4-((3,4-dichlorophenyl)amino)-1H-1,2,3-triazole-5-carboxylic acid], the IC50 is under 100 nM. As for `O=C(O)c1[nH]nnc1NC1CCCN(c2ccc(OC(F)(F)F)cc2)C1` (stereo not drawn) [Compound 70, 4-((1-(4-(trifluoromethoxy)phenyl)piperidin-3-yl)amino)-1H-1,2,3-triazole-5-carboxylic acid], the IC50 is 100 to 1000 nM.

In the case of `O=C(O)c1[nH]nnc1NC1CCN(c2ccc(Cl)cc2)CC1` [Compound 71, 4-((1-(4-chlorophenyl)piperidin-4-yl)amino)-1H-1,2,3-triazole-5-carboxylic acid 2,2,2-trifluoroacetate], the IC50 was 100 to 1000 nM. For `O=C(OC1CC1)c1[nH]nnc1Nc1ccc(-c2ccc(OC(F)(F)F)cc2)cc1` [Compound 72, cyclopropyl 4-((4′-(trifluoromethoxy)-[1,1′-biphenyl]-4-yl)amino)-1H-1,2,3-triazole-5-carboxylate 2,2,2-trifluoroacetate], the IC50 was over 10000 nM. For the compound `O=C(O)c1[nH]nnc1NC1CCN(c2ccc(OC(F)(F)F)cc2)C1` (stereo not drawn) [Compound 73], the IC50 was 100 to 1000 nM. On to `O=C(O)c1[nH]nnc1NC1CCN(c2ccc(OC(F)(F)F)cc2)CC1` [Compound 74, 4-((1-(4-(trifluoromethoxy)phenyl)piperidin-4-yl)amino)-1H-1,2,3-triazole-5-carboxylic acid], for which the IC50 was 100 to 1000 nM. The same measure, in the same setting: then `CN(c1ccc(-c2ccc(Cl)cc2)cc1)c1nn[nH]c1C(=O)O` [Compound 75, 4-((4′-chloro-[1,1′-biphenyl]-4-yl)(methyl)amino)-1H-1,2,3-triazole-5-carboxylic acid 2,2,2-trifluoroacetate], with 100 to 1000 nM.

Regarding `O=C(O)c1[nH]nnc1Nc1ccc2cc(Cl)ccc2n1` [Compound 76, 4-((6-chloroquinolin-2-yl)amino)-1H-1,2,3-triazole-5-carboxylic acid], the IC50 is under 100 nM. On the same count and under the same terms, then `O=C(O)c1[nH]nnc1Nc1ccc2c(c1)CCCC2` [Compound 77, 4-((5,6,7,8-tetrahydronaphthalen-2-yl)amino)-1H-1,2,3-triazole-5-carboxylic acid], with 1000 to 10000 nM; and `O=C(O)c1[nH]nnc1Nc1ccc(Cl)c2ccccc12` [Compound 78, 4-((4-chloronaphthalen-1-yl)amino)-1H-1,2,3-triazole-5-carboxylic acid], with 100 to 1000 nM; and `O=C(O)c1[nH]nnc1Nc1ccc2ncsc2c1` [Compound 79, 4-(benzo[d]thiazol-6-ylamino)-1H-1,2,3-triazole-5-carboxylic acid], with 1000 to 10000 nM. On to `O=C(O)c1[nH]nnc1Nc1ccc(F)c(F)c1` [Compound 80, 4-((3,4-difluorophenyl)amino)-1H-1,2,3-triazole-5-carboxylic acid], for which the IC50 was 100 to 1000 nM. For `CC(C)(C)C(=O)OCOC(=O)c1[nH]nnc1Nc1ccc(-c2ccc(Cl)cc2)cc1` [Compound 81, (pivaloyloxy)methyl 4-((4′-chloro-[1,1′-biphenyl]-4-yl)amino)-1H-1,2,3-triazole-5-carboxylate], the IC50 is 1000 to 10000 nM. Turning to `O=C(O)c1[nH]nnc1Nc1ccc2cc(Cl)ccc2c1` [Compound 82, 4-((6-chloronaphthalen-2-yl)amino)-1H-1,2,3-triazole-5-carboxylic acid 2,2,2-trifluoroacetate], the IC50 is 100 to 1000 nM.

`O=C(O)c1[nH]nnc1Nc1ccc(OC(F)(F)F)cc1` [Compound 83, 4-((4-(trifluoromethoxy)phenyl)amino)-1H-1,2,3-triazole-5-carboxylic acid]: the IC50 was 100 to 1000 nM. As to `O=C(O)c1[nH]nnc1N1CCc2ccccc2C1` [Compound 84, 4-(3,4-dihydroisoquinolin-2(1H)-yl)-1H-1,2,3-triazole-5-carboxylic acid 2,2,2-trifluoroacetate], the IC50 is 100 to 1000 nM. Turning to `O=C(O)c1[nH]nnc1Nc1ccc2cc(Br)ccc2c1` [Compound 85, 4-((6-bromonaphthalen-2-yl)amino)-1H-1,2,3-triazole-5-carboxylic acid 2,2,2-trifluoroacetate], the half-inhibitory concentration (IC50) is under 100 nM. Take `O=C(O)c1[nH]nnc1Oc1ccc(-c2ccc(OC(F)(F)F)cc2)cc1` [Compound 87, 4-((4′-(trifluoromethoxy)-[1,1′-biphenyl]-4-yl)oxy)-1H-1,2,3-triazole-5-carboxylic acid]: the IC50 is under 100 nM. Take `O=C(O)c1[nH]nnc1Oc1ccc2cc(Br)ccc2c1` [Compound 89, 4-((6-bromonaphthalen-2-yl)oxy)-1H-1,2,3-triazole-5-carboxylic acid]: the IC50 is under 100 nM. Still for that read-out and setting: to `O=C(O)c1[nH]nnc1OC1CCN(c2ccc(OC(F)(F)F)cc2)C1` (stereo not drawn) [Compound 90, 4-((1-(4-(trifluoromethoxy)phenyl)pyrrolidin-3-yl)oxy)-1H-1,2,3-triazole-5-carboxylic acid] belongs under 100 nM. Turning to `O=C(O)c1[nH]nnc1Oc1cc(Cl)cc(Cl)c1` [Compound 91, 4-(3,5-dichlorophenoxy)-1H-1,2,3-triazole-5-carboxylic acid], the IC50 was under 100 nM. In the case of `O=C(O)c1nn[nH]c1Oc1ccc(Cl)c2ccccc12` [Compound 92, 4-((4-chloronaphthalen-1-yl)oxy)-1H-1,2,3-triazole-5-carboxylic acid], the IC50 was under 100 nM.

As for `COC(=O)c1[nH]nnc1Oc1ccc2cc(Br)ccc2c1` [Compound 93, methyl 4-((6-bromonaphthalen-2-yl)oxy)-1H-1,2,3-triazole-5-carboxylate], the IC50 is over 10000 nM.

In the case of `O=C(O)c1[nH]nnc1Oc1ccc(Cl)cc1Cl` [Compound 95, 4-(2,4-dichlorophenoxy)-1H-1,2,3-triazole-5-carboxylic acid], the IC50 is under 100 nM. As for `O=C(O)c1[nH]nnc1Oc1ccc(OC(F)(F)F)cc1` [Compound 96, 4-(4-(trifluoromethoxy)phenoxy)-1H-1,2,3-triazole-5-carboxylic acid], the IC50 is under 100 nM. `O=C(O)c1[nH]nnc1Oc1ccc2c(c1)CCCC2` [Compound 97, 4-((5,6,7,8-tetrahydronaphthalen-2-yl)oxy)-1H-1,2,3-triazole-5-carboxylic acid]: the IC50 is under 100 nM. As for `O=C(O)c1[nH]nnc1Oc1ccc2ncsc2c1` [Compound 99, 4-(benzo[d]thiazol-6-yloxy)-1H-1,2,3-triazole-5-carboxylic acid 2,2,2-trifluoroacetate], the IC50 is under 100 nM.

As to `O=C(O)c1[nH]nnc1Oc1cc(Cl)ccc1Cl` [Compound 100, 4-(2,5-dichlorophenoxy)-1H-1,2,3-triazole-5-carboxylic acid], the IC50 is under 100 nM. With `CC(=O)OCn1nnc(Oc2ccc3cc(Br)ccc3c2)c1C(=O)O` [Compound 101, 1-(acetoxymethyl)-4-((6-bromonaphthalen-2-yl)oxy)-1H-1,2,3-triazole-5-carboxylic acid], the IC50 was 100 to 1000 nM.
